Measured values taken from patent US20250099423A1, “PIPERAZINE-BASED AGONISTS OF LFA-1 AND VLA-4” (Texas Heart Institute, priority 2021, published 2025).

Tests used:
α4β1/VCAM-1 = molecular target: T1, α4β1/VCAM-1 (Homo sapiens, UniProt P05556+P13612); assay: Static cell adhesion assay, Jurkat cells on VCAM-1 (α4β1/VCAM-1); format: cell-based; conditions: ratio compound activity/control THI0019 (average 33 μM) run on the same plate
T1 construct: The Jurkat (VCAM-1 assays) and HSB (ICAM-1 assays) cell lines were obtained from American Type Culture Collection; endogenous in cells; host or cells: Jurkat cells (ATCC)
T1 sequence (P13612 34-1032): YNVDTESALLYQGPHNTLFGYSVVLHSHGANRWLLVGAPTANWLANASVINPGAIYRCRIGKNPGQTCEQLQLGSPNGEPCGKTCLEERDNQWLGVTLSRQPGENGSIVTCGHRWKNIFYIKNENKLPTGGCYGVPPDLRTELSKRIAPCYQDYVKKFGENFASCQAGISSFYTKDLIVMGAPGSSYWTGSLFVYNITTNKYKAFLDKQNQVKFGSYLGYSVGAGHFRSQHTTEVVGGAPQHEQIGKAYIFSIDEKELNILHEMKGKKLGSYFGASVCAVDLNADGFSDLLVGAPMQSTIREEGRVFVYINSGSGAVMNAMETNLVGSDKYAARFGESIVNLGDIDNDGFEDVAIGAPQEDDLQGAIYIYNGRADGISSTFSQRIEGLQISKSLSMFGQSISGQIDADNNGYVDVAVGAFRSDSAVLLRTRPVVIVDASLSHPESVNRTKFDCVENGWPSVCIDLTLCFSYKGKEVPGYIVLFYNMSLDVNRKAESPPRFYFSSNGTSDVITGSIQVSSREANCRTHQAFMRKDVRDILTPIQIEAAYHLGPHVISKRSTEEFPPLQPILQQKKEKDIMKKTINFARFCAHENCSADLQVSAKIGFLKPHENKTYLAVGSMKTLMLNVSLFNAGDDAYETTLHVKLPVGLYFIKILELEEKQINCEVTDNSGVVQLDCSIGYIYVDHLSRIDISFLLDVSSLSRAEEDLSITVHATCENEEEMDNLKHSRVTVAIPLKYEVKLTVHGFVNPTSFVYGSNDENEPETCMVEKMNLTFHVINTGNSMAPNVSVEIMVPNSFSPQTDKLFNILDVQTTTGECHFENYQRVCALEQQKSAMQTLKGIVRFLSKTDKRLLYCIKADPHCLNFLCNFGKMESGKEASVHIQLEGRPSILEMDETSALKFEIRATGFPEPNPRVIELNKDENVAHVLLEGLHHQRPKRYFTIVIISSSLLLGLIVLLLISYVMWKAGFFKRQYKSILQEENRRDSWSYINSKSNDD
T1 sequence (P05556 21-798): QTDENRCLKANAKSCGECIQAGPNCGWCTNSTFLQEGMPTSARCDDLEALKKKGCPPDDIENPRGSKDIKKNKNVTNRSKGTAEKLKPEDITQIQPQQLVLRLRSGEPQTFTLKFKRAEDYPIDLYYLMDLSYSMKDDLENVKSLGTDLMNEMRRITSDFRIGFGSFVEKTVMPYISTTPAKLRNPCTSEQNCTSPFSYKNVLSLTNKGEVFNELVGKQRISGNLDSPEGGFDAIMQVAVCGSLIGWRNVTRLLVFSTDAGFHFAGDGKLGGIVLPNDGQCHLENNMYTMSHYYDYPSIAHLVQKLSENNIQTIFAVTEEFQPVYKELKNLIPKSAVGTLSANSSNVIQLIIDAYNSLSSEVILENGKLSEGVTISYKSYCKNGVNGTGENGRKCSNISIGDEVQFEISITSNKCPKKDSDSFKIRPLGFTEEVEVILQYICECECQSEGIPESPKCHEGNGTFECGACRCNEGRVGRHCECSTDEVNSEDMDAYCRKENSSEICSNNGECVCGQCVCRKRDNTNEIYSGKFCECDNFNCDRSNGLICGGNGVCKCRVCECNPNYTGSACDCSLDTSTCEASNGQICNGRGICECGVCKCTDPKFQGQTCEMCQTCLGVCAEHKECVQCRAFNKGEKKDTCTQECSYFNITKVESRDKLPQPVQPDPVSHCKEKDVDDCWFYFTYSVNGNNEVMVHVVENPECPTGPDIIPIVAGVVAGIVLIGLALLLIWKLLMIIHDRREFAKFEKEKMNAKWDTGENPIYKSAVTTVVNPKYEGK
Method: (§1) For in vitro cell adhesion assays, compounds were dissolved in DMSO to make a series of stock solutions such that a 1:100 dilution in assay buffer would yield the desired final working concentrations in 1% DMSO (vehicle). Human VCAM-1 and ICAM-1 were purchased from R&D Systems (Minneapolis, MN). The Jurkat (VCAM-1 assays) and HSB (ICAM-1 assays) cell lines were obtained from American Type Culture Collection (Manassas, VA) and were maintained in recommended culture media.
(§2) Assays were performed as previously described in 1. Vanderslice, P., Woodside, D. G., Caivano, A. R., Decker, E. R., Munsch, C. L., Sherwood, S. J., Lejeune, W. S., Miyamoto, Y. J., McIntyre, B. W., Tilton, R. G., and Dixon, R. A. (2010) Potent in vivo suppression of inflammation by selectively targeting the high affinity conformation of integrin alpha4beta1. Biochem Biophys Res Commun 400, 619-624; and 2. Vanderslice, P., Biediger, R. J., Woodside, D. G., Brown, W. S., Khounlo, S., Warier, N. D., Gundlach, C. W. t., Caivano, A. R., Bornmann, W. G., Maxwell, D. S., McIntyre, B. W., Willerson, J. T., and Dixon, R. A. (2013) Small molecule agonist of very late antigen-4 (VLA-4) integrin induces progenitor cell adhesion. J Biol Chem 288, 19414-19428. VCAM-1 or ICAM-1 ligand in 50 μL of 50 mM Tris-HCl (pH 7.4), 150 mM NaCl, (TBS) was added to wells of a 96-well plate and allowed to coat overnight at 4° C. To maximize the window to evaluate agonist activity, a sub-optimal coating concentration of ligand was used, typically between 0.5 and 5 μg/mL in 50 μL TBS for VCAM-1 and ICAM-1 respectively. This ligand concentration corresponded approximately to that which would yield≤ 5% adhesion as determined by dose-response curves. Briefly, 2×10^6 cells were labeled for 30 minutes with calcein-AM (Molecular Probes), washed, resuspended in binding buffer, and added to triplicate wells of ligand-coated plates (2×10^5 cells/well) that had been blocked with 2% BSA. After a 30-minute incubation at 37° C., the plates were washed 3 times with binding buffer, the adherent cells were lysed, and fluorescence was measured on a Tecan Safire^2 plate reader. The binding buffer was PBS with 1 mM MgCl2, 50% FBS for α4β1/VCAM-1 assays and PBS with 2 mM MgCl2, 5 mM EGTA, 50% FBS for αLβ2/ICAM-1 assays. EC50 is defined as the concentration of compound required to achieve 50% of the maximal response.

LFA-1 = molecular target: T2, LFA-1 (Homo sapiens, UniProt P05107+P20701); assay: Static cell adhesion assay, HSB cells on ICAM-1 (αLβ2/ICAM-1; LFA-1); format: cell-based; conditions: Dose 3 μM, compound and THI0349 at the same concentration; ratio >1 = more potent agonist
T2 construct: The Jurkat (VCAM-1 assays) and HSB (ICAM-1 assays) cell lines were obtained from American Type Culture Collection; endogenous in cells; host or cells: HSB cells (ATCC)
T2 sequence (P20701 26-1170): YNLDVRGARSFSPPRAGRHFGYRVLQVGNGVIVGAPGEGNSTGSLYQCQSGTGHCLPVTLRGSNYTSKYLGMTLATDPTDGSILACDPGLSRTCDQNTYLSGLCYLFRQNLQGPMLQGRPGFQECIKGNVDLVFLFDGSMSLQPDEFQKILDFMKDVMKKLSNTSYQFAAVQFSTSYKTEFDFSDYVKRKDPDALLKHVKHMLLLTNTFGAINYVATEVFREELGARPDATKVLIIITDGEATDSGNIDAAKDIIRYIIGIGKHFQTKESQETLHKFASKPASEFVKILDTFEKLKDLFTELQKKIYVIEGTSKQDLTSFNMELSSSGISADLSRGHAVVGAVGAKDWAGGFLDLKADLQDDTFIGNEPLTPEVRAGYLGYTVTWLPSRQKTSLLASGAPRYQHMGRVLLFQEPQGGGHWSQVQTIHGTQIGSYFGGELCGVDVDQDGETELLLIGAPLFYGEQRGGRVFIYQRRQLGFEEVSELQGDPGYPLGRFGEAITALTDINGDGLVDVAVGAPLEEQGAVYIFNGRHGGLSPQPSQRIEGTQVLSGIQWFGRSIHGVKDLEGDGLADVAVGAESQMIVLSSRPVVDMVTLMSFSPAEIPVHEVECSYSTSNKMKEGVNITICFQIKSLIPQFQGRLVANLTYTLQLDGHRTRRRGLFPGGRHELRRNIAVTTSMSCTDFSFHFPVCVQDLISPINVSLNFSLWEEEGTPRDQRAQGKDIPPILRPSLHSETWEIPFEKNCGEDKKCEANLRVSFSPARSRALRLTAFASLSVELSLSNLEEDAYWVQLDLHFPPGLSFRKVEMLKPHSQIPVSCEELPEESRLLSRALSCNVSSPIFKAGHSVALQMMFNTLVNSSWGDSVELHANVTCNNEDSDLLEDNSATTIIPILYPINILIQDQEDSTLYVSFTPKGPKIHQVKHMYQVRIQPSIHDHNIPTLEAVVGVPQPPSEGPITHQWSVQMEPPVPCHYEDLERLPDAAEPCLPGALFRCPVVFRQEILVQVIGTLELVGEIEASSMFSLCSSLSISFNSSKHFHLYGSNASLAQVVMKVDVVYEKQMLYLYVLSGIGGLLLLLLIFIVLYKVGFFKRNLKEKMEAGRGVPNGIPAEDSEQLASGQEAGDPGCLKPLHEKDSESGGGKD
T2 sequence (P05107 23-769): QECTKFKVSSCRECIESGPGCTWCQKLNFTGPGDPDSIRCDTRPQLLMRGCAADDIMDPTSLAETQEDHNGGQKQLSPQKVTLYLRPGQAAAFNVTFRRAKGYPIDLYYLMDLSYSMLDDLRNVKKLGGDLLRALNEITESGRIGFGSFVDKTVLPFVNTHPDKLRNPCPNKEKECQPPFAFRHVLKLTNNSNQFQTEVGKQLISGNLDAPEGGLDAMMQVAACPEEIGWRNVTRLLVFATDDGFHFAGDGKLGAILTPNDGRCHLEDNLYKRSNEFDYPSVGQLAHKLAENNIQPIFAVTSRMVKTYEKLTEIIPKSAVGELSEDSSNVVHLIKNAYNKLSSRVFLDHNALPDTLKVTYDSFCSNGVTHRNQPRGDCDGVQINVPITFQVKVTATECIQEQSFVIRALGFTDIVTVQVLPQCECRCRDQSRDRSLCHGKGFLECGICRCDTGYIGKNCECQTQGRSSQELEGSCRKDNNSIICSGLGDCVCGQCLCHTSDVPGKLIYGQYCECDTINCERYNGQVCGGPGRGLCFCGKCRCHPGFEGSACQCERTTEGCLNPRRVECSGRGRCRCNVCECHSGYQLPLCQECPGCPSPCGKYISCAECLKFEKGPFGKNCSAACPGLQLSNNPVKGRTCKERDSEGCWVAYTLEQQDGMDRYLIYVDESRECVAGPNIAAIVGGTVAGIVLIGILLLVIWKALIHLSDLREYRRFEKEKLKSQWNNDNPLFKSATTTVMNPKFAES
Method: as §1, §2
THI0019 and THI0349 (average 11 μM) reported values here were obtained under the assay conditions reported herein and ran higher in the presence of serum than those values under different assay conditions. […] Relative to THI0019 (average 33 μM) as a control against CS1, the ratio of (compound activity/control) is as follows: Group I< or =1. Group II at least a ratio of >1 up to 2× that of THI0019 ran on the same plate; Group III is >2× of THI0019 but less than 5×; and Group IV>5× of THI0019 (with an upper limit of approximately 200 mM). In relation to LAD (Leukocyte Adhesion Deficiency), LFA-1 ratios are determined by dividing the relative fluorescence units (RFU) of each compound over that of the reference standard of THI0349, (RFU Compound/RFU of THI0349). Against LFA-1, the signal for THI0349 at 3 μM was compared to the claimed compounds at the same concentration.

| Compound | Average Ratio Compound to THI0019 (Activity against CS1) (α4β1/VCAM-1) | LAD Raw Fluorescence Units against LFA-1; Ratio of raw counts Compound/THI0349 (LFA-1) |
| --- | --- | --- |
| COc1ccc(CN(Cc2cccc(N(C)C)c2)C(=O)CN2CC(=O)N(CC(=O)N(Cc3ccc(OC)cc3)Cc3cccc(N(C)C)c3)CC2=O)cc1 | Group II (Group II at least a ratio of >1 up to 2× that of THI0019 ran on the same plate) | – |
| COc1cccc(CN(Cc2cccc(OC)c2)C(=O)CN2CC(=O)N(CC(=O)N(Cc3cccc(OC)c3)Cc3cccc(OC)c3)CC2=O)c1 [2,2′-(2,5-dioxopiperazine-1,4-diyl)bis(N,N-bis(3-methoxybenzyl)acetamide)] | Group I (Group I< or =1) | – |
| CN(C)c1ccc(CN(Cc2ccc(N(C)C)cc2)C(=O)CN2CC(=O)N(CC(=O)N(Cc3ccc(N(C)C)cc3)Cc3ccc(N(C)C)cc3)CC2=O)cc1 [2,2′-(2,5-dioxopiperazine-1,4-diyl)bis(N,N-bis(4-(dimethylamino)benzyl)acetamide)] | Group I (Group I< or =1) | – |
| O=C1CN(CC(=O)N(Cc2cccs2)Cc2cccs2)C(=O)CN1CC(=O)N(Cc1cccs1)Cc1cccs1 [2,2′-(2,5-dioxopiperazine-1,4-diyl)bis(N,N-bis(thiophen-2-ylmethyl)acetamide)] | Group III (Group III is >2× of THI0019 but less than 5×) | – |
| COc1ccc(CN(CC(C)C)C(=O)CN2CC(=O)N(CC(=O)N(Cc3ccc(OC)cc3)CC(C)C)CC2=O)cc1 [2,2′-(2,5-dioxopiperazine-1,4-diyl)bis(N-isobutyl-N-(4-methoxybenzyl)acetamide)] | Group III (Group III is >2× of THI0019 but less than 5×) | 0.15 fold response |
| COc1ccc(CN(Cc2ccc(OC)cc2)C(=O)CN2CCN(CC(=O)N(Cc3ccc(OC)cc3)Cc3ccc(OC)cc3)C(=O)C2)cc1 [2,2′-(2-oxopiperazine-1,4-diyl)bis(N,N-bis(4-methoxybenzyl)acetamide)] | Group I (Group I< or =1) | 5.9 fold increased response |
| COc1ccc(CN(CC(C)C)C(=O)CN2CCN(CC(=O)N(Cc3ccc(OC)cc3)CC(C)C)C(=O)C2)cc1 [2,2′-(2-oxopiperazine-1,4-diyl)bis(N-isobutyl-N-(4-methoxybenzyl)acetamide)] | Group III (Group III is >2× of THI0019 but less than 5×) | 0.19 fold response |
| COc1ccc(CN(Cc2ccc(OC)cc2)C(=O)CN2CCN(CC(=O)N(Cc3ccc(OC)cc3)Cc3ccc(OC)cc3)CC2)cc1 [2,2′-(piperazine-1,4-diyl)bis(N,N-bis(4-methoxybenzyl)acetamide)] | Group I (Group I< or =1) | – |
| O=C(CN1CCN(CC(=O)N(Cc2cccs2)Cc2cccs2)CC1)N(Cc1cccs1)Cc1cccs1 [2,2′-(piperazine-1,4-diyl)bis(N,N-bis(thiophen-2-ylmethyl)acetamide)] | Group II (Group II at least a ratio of >1 up to 2× that of THI0019 ran on the same plate) | 0.4 fold response |
| COc1ccc(CN(CC(C)C)C(=O)CN2CCN(CC(=O)N(Cc3ccc(OC)cc3)CC(C)C)CC2)cc1 [2,2′-(piperazine-1,4-diyl)bis(N-isobutyl-N-(4-methoxybenzyl)acetamide)] | Group IV (Group IV>5× of THI0019 (with an upper limit of approximately 200 mM)) | 0.9 fold response |
| COc1ccc(CN(Cc2ccc(OC)cc2)C(=O)CN2CCN(C(=O)c3cccc(OC)c3)CC2=O)cc1 [2-(4-(3-methoxybenzoyl)-2-oxopiperazin-1-yl)-N,N-bis(4-methoxybenzyl)acetamide] | Group IV (Group IV>5× of THI0019 (with an upper limit of approximately 200 mM)) | 0.6 fold response |
| COc1ccc(CN(Cc2ccc(N(C)C)cc2)C(=O)CN2CCN(C(=O)OCc3cccc(OC)c3)CC2=O)cc1 [3-methoxybenzyl 4-(2-((4-(dimethylamino)benzyl)(4-methoxybenzyl)amino)-2-oxoethyl)-3-oxopiperazine-1-carboxylate] | Group II (Group II at least a ratio of >1 up to 2× that of THI0019 ran on the same plate) | 4.2 fold increased response |
| COc1ccc(CN(Cc2ccc(OC)cc2)C(=O)CN2CCN(C(=O)OCc3cccc(OC)c3)CC2)cc1 [3-methoxybenzyl 4-(2-(bis(4-methoxybenzyl)amino)-2-oxoethyl)piperazine-1-carboxylate] | Group II (Group II at least a ratio of >1 up to 2× that of THI0019 ran on the same plate) | 2.2 fold increased response |
| COc1ccc(CCOC(=O)N2CCN(CC(=O)N(Cc3ccc(OC)cc3)Cc3ccc(OC)cc3)CC2)cc1 [4-methoxyphenethyl 4-(2-(bis(4-methoxybenzyl)amino)-2-oxoethyl)piperazine-1-carboxylate] | Group II (Group II at least a ratio of >1 up to 2× that of THI0019 ran on the same plate) | 4.6 fold increased response |
| COc1cccc(CN(Cc2ccc(N(C)C)cc2)C(=O)OCCN2CC(=O)N(CCOC(=O)N(Cc3ccc(N(C)C)cc3)Cc3cccc(OC)c3)CC2=O)c1 [(2,5-dioxopiperazine-1,4-diyl)bis(ethane-2,1-diyl) bis(4-(dimethylamino)benzyl (3-methoxybenzyl)carbamate)] | Group I (Group I< or =1) | 7.8 fold increased response |
| COc1ccc(CN(Cc2ccc(N(C)C)cc2)C(=O)OCCN2CC(=O)N(CCOC(=O)N(Cc3ccc(OC)cc3)Cc3ccc(N(C)C)cc3)CC2=O)cc1 [(2,5-dioxopiperazine-1,4-diyl)bis(ethane-2,1-diyl) bis(4-(dimethylamino)benzyl (4-methoxybenzyl)carbamate)] | Group I (Group I< or =1) | 9.9 fold increased response |
| COc1cccc(CN(Cc2cccc(OC)c2)C(=O)OCCN2CC(=O)N(CCOC(=O)N(Cc3cccc(OC)c3)Cc3cccc(OC)c3)CC2=O)c1 [(2,5-dioxopiperazine-1,4-diyl)bis(ethane-2,1-diyl) bis(bis(3-methoxybenzyl)carbamate)] | Group I (Group I< or =1) | 3.4 fold increased response |
| COc1ccc(CN(Cc2ccc(OC)cc2)C(=O)OCCN2CC(=O)N(CCOC(=O)N(Cc3ccc(OC)cc3)Cc3ccc(OC)cc3)CC2=O)cc1 [(2,5-dioxopiperazine-1,4-diyl)bis(ethane-2,1-diyl) bis(bis(4-methoxybenzyl)carbamate)] | Group I (Group I< or =1) | 7.8 fold increased response |
| O=C1CN(CCOC(=O)N(Cc2cccs2)Cc2cccs2)C(=O)CN1CCOC(=O)N(Cc1cccs1)Cc1cccs1 [(2,5-dioxopiperazine-1,4-diyl)bis(ethane-2,1-diyl) bis(bis(thiophen-2-ylmethyl)carbamate)] | Group II (Group II at least a ratio of >1 up to 2× that of THI0019 ran on the same plate) | 2 fold increased response |
